Patent US20230364084A1, “METHODS FOR PREVENTING OR TREATING CONDITIONS RELATED TO PIKFYVE ACTIVITY” (The Regents of the University of Michigan, priority 2020, published 2023)

Columns and labels:
[1] = test system: autophagosomes in LNCaP, VCaP and DU145 cells; experiment: CYTO-ID autophagosome detection; format: cell-based, human; conditions: 24 hours
Protocol: 10,000 cells were plated in 96-well plates and incubated with 300 nM of the various compounds for 24 hours. Autophagy activities were detected with CYTO-ID® Autophagy detection kit (Cat No. ENZ-KIT175, Enzo Life Science) according to the manufacturer's instructions, with fluorescence intensity measured on a TECAN M1000 plate reader. Autophagosome induction factor was calculated according to the manufacturer's instructions.

PIKfyve [2] = molecular target: T1, PIKfyve (Homo sapiens, UniProt Q9Y2I7); experiment: cellular thermal shift assay; format: cell-based; set-up: endogenous in cells; host or cells: VCaP cells; conditions: VCaP cells, 1 μM, 2 hours
T1 sequence (Q9Y2I7 whole entry): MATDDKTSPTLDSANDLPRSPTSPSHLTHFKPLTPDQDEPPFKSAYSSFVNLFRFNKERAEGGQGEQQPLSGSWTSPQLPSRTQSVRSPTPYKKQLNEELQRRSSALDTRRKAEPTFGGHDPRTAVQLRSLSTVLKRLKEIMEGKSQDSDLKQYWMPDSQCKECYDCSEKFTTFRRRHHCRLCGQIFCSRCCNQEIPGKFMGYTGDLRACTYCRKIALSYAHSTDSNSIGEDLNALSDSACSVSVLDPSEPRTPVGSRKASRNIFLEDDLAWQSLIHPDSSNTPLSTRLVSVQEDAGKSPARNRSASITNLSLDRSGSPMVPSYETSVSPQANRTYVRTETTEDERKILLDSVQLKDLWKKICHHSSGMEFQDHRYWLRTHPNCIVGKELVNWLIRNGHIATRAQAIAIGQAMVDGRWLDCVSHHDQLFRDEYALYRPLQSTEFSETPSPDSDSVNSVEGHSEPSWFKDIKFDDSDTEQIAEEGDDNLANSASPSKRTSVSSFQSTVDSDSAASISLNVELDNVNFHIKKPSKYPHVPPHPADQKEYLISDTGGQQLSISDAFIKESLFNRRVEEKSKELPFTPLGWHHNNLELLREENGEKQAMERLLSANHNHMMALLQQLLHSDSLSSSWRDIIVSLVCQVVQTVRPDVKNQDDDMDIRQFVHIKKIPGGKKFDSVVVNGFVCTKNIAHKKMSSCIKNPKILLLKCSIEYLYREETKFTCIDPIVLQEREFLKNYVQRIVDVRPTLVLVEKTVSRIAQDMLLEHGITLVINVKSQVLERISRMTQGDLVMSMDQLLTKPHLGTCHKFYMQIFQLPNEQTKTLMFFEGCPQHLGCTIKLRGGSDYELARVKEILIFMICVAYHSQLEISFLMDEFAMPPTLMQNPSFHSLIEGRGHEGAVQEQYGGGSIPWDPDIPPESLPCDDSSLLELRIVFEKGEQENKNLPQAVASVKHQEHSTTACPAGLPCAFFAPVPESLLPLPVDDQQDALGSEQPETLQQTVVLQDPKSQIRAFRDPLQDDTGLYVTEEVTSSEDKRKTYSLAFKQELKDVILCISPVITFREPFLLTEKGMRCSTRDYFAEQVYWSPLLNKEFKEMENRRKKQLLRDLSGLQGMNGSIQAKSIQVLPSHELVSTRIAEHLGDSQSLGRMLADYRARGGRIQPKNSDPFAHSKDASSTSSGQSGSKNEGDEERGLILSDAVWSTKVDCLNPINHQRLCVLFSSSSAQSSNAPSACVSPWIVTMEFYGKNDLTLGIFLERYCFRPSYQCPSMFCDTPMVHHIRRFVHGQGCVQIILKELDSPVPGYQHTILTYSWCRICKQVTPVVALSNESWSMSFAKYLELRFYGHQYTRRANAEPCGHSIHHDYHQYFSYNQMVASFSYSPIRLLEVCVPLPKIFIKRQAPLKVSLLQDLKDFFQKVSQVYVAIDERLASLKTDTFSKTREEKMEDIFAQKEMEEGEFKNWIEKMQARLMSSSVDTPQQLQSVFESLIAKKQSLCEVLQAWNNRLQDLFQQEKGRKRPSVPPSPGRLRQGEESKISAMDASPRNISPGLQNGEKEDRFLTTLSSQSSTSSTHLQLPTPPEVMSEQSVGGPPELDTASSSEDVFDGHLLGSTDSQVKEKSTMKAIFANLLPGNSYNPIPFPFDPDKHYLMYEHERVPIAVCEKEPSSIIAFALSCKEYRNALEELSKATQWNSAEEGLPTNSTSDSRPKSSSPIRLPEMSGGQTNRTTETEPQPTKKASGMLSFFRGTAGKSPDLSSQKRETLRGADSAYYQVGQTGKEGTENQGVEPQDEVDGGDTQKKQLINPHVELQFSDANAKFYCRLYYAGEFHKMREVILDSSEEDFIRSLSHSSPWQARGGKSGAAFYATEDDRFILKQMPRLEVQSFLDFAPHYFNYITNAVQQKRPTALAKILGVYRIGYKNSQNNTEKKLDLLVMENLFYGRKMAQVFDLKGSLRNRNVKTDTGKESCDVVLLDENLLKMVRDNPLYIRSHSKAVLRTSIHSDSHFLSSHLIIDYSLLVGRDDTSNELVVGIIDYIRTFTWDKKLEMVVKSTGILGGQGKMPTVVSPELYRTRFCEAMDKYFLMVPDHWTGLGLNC
Protocol: The ability of compounds to interact with, and thereby stabilize the target in intact cells, was analyzed essentially as previously described^60,61. The target engagement of ESK981 to PIKfyve was performed in VCaP cells. Cells were treated with DMSO, ESK981 (1 μM), or apilimod (1 μM) for 2 hours at 37° C. and 5% CO2, and 1×10^6 single cell suspensions were diluted into 50 μl of PBS containing protease inhibitor. Cell suspensions were then incubated in a PCR thermal cycler at various temperatures for 2 cycles of 3 minutes heating followed by 3 minutes cooling at room temperature. Cells were lysed by three cycles of freeze-thawing using liquid nitrogen. 20 μl of the soluble fraction of cell lysates were analyzed by western blot.

PIKfyve [3] = molecular target: T1, PIKfyve; experiment: lipid kinase competition assay (scanLIPID panel, 22 lipid kinases); format: binding; set-up: purchased DiscoveRX (KINOMEscan scanLIPID panel; KdELECT); conditions: 1 μM ESK981, only target among 22 phosphoinositide kinases
Protocol: Lipid kinase competition assays for 22 lipid kinases, including clinically-relevant mutants, were performed using DiscoveRX KINOEscan® platform scanLIPID® panel. Detailed information is described on the DiscoveRX website (https://www.discoverx.com/technologies-platforms/competitive-binding-technology/kinomescan-technology-platform).

[4] = test system: MDA-PCa-146-12 AR-positive PDX; experiment: MDA-PCa-146-12 patient-derived xenograft; format: in vivo, mouse; conditions: 30 mg/kg
Protocol: The University of Texas M.D. Anderson Cancer Center (MDACC) patient-derived xenografts (PDX) series has been previously described^62-64. PDXs were derived from men with CRPC undergoing palliative resections using described protocols^65,66. MDA-PCa-146-12 and 146-10 PDX were derived from a patient initially diagnosed with Gleason 3+4=7 prostate adenocarcinoma with an initial PSA of 10.7 ng/ml. […] PDXs were maintained in male SCID mice by surgically implanting 2 mm^3 tumors coated with 100% Matrigel to both flanks of mice. Once tumors reached 100-200 mm^3 in size, mice were randomized and divided into different treatment groups receiving either 30 mg/kg ESK981 or vehicle (ORA-PLUS) by oral gavage 5 days per week.

[5] = test system: prostate cancer cell lines; experiment: cell cycle analysis; format: cell-based, human
Protocol: Cells were seeded in 6-well plates and treated with various drugs for 72 hours. Single cells were fixed with 70% ethanol, stained with propidium iodine, and cell cycle was analyzed by flow cytometry.

DU145 tumors = experiment: DU145 xenograft tumor model; format: in vivo, mouse; conditions: 30 mg/kg
Protocol: Four- to six-week old male CB17 severe combined immunodeficiency (SCID) mice were procured from the University of Michigan breeding colony. Subcutaneous tumors were established at both sides of the dorsal flank of mice. Tumors were measured at least biweekly using digital calipers following the formula (π/6) (L×W2), where L=length and W=width of the tumor. At the end of the studies, mice were sacrificed and tumors extracted and weighed. The University of Michigan University Committee on the Use and Care of Animals (UCUCA) approved all in vivo studies. For the VCaP castration-resistant tumor model, 3×10^6 VCaP cells were injected subcutaneously into the dorsal flank on both sides of the mice in serum-free medium with 50% Matrigel (BD Biosciences). Once tumors reached a palpable stage (˜200 mm^3), tumor-bearing mice were castrated. Once tumors grew back to the pre-castration size, mice were randomized and treated with either 30 mg/kg, 60 mg/kg ESK981, or vehicle (ORA-PLUS) by oral gavage 5 days per week. For the DU145 xenograft tumor model, 1×10^6 DU145 cells were injected subcutaneously into the dorsal flank on both sides of the mice in serum-free medium with 50% Matrigel. When tumors reached ˜100 mm^3, tumor-bearing mice were randomized and treated with 30 mg/kg ESK981 or vehicle (ORA-PLUS) by oral gavage 5 days per week.

[6] = toxicity evaluation in mice (body weight, serum chemistry, organ histology); format: in vivo, mouse
Protocol: To determine whether ESK981-mediated growth inhibition translated into anti-tumor effects, the efficacy of ESK981 in blocking prostate cancer growth in mouse xenograft models was assessed. VCaP cells were chosen for initial experiments because this cell line harbors the TMPRSS2:ERG gene fusion and AR amplification, both of which are frequent molecular aberrations in patients with advanced CRPC^29. A castration-resistant VCaP tumor-bearing xenograft mouse model was generated to mimic disease progression in human patients (FIG. 3a).
Whole blood was collected using BD Microtainer SST tubes, and serum was isolated by centrifugation at 7000 rpm for 10 minutes. Sera were submitted to the University of Michigan ULAM Pathology Cores for Animal Research for liver and renal chemistry analysis.

LAMP1 in DU145 cells = experiment: LAMP1 immunofluorescence; format: cell-based, human; conditions: 300 nM, 24 hours
Protocol: For LAMP1 immunofluorescence, cells were seeded on coverslips overnight and treated with ESK981 at 300 nM for 24 hours. Coverslips were fixed with 10% paraformaldehyde and permeabilized with 10% saponin. Coverslips were then blocked with 10% goat serum and stained with LAMP1 antibody (Cat No. 9091, Cell Signaling Technology) and fluorescently-labelled secondary antibody. Confocal images were taken using a Nikon A1 confocal microscope.

Myc-CaP cells = experiment: long-term survival assay in Myc-CaP cells; format: cell-based, mouse
Protocol: Single cell suspensions were seeded into 96-well plates at a density of 1,000-30,000 cells per well. Long-term survival was determined after 14 days of drug incubation. Viable cells were fixed with 4% formaldehyde and subsequently stained with 1% crystal violet. IC50 was calculated using GraphPad Prism.

[7] = oral gavage 5 days per week, SCID mice

With CC(C)Cn1c2ccc(Nc3ncccn3)cc2c2c3c(c4c(c21)CCc1nn(C)cc1-4)C(=O)NC3 [ESK981, 13-isobutyl-4-methyl-10-(pyrimidin-2-ylamino)-1,2,4,7,8,13-hexahydro-6H-indazolo[5,4-a]pyrrolo[3,4-c]carbazol-6-one] the “rank in autophagosome induction among compound libraries” value ([1]; DU145 cells, 300 nM, vs 154 autophagy-related compounds and 167 tyrosine kinase inhibitors) was “highest potency at inducing autophagosome levels”, the “autophagosome signals (CYTO-ID fluorescence intensity)” value ([1]; LNCaP, VCaP and DU145 cells, increasing concentrations) was “dose-dependent induction of autophagosome signals” and the “level of autophagosome induction compared with rapamycin” value ([1]; VCaP and LNCaP cells) was “higher than a known autophagy activator, the mTOR inhibitor rapamycin”. The “cellular target engagement on PIKfyve” value (PIKfyve [2]) was “confirmed”, the “competition in affinity binding screen” value (PIKfyve [3]) was “completely competed away” and the tumor weights [4] was “significant decreases in tumor weights”. The tumor growth [4, 7] was “Significant inhibition of tumor growth”, the cell cycle arrest ([5]; 72 hours, increasing concentrations) was “dose-dependent G2/M phase arrest” and the “G2/M arrest compared with other inhibitors” value ([5]; VCaP cells, ESK981 100 nM vs cabozantinib 5 μM, crizotinib 3 μM, enzalutamide 10 μM) was “greater G2/M arrest potential at a lower concentration”. The tumor weights (DU145 tumors) was “significant decreases in tumor weights”, the tumor growth (DU145 tumors; [7]) was “Significant inhibition of tumor growth” and the “tissue vacuolization in major organs” value ([6]; H&E staining of organs of ESK981-treated mice) was “no major organs were found to have the same tissue vacuolization morphology”. For the same compound, the body weight loss ([6]; VCaP tumor-bearing mice) was “within the range of tolerance”, the tolerability in mice ([6]; body weight, liver and kidney serum chemistry, histology of major organs) was “well-tolerated” and the “LAMP1 staining of ESK981-induced vacuoles” value (LAMP1 in DU145 cells) was “positive for the lysosomal marker LAMP1”. For the same compound, the “efficacy compared with crizotinib and cabozantinib” value (Myc-CaP cells) was “most efficacious compound” and the IC50 (Myc-CaP cells; Mus musculus, read-out: growth inhibitory IC50) was 35 nM.
